Measurements from paper PMC8022280 (ChemMedChem, 2018).

Key:
Wip1 [1] = target: T1, Wip1 (Homo sapiens, UniProt O15297); experiment: Quantitative ELISA of γH2AX levels in MCF7 cells; type: cell-based; conditions: no IR (Figure S2)
T1 sequence (O15297 1-605): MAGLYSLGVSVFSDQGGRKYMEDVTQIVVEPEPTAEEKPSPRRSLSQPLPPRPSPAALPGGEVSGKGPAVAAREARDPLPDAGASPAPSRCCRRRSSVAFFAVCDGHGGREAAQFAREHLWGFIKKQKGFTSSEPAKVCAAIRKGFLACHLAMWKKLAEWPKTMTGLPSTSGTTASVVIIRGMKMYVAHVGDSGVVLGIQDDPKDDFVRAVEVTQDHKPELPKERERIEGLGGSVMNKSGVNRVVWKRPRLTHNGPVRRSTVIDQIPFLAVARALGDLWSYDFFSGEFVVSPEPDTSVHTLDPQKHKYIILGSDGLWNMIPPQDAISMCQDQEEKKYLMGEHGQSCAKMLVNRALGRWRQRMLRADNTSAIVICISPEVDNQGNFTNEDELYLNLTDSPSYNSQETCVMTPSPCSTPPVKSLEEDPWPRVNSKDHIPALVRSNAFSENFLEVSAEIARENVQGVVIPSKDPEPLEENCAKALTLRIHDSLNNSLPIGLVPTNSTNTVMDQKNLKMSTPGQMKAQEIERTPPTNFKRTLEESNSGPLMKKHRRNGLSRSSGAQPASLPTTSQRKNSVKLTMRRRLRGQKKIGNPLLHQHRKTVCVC

Wip1 [2] = target: T1, Wip1; experiment: Inhibition of Wip1 phosphatase activity toward the ATM; type: biochemical

SMILES | increase in γH2AX levels in the absence of exposure to IR (Wip1 [1]) | IC50 (Wip1 [2]) [µM]
Cc1ncc(Cl)cc1NCc1ccc(C(=O)N[C@@H](CC2CCCC2)C(=O)NC2CC2)s1 [GSK2830371, reference compound] | did not produce a detectable increase | –
COC(=O)[C@H](CCCCNC(=O)[C@H](CC1CCCCC1)NC(=O)c1cccs1)NC(=O)c1cccc(O)c1 [Compound 1, Methyl-N^6-((S)-3-cyclohexyl-2-(thiophene-2-carboxamido)propanoyl)-N^2-(3-hydroxybenzoyl)-L-lysinate] | did not produce a detectable increase | 0.92
